Experimental data: ChEMBL document CHEMBL4828725 (Eur J Med Chem, 2021); call rule not given here

Tests used:
[1] = Inhibition of Aspergillus niger amyloglucosidase using p-nitrophenyl glycoside as substrate assessed as release of p-nitrophenol measured by spectrometric assay
Beta-glucuronidase = Beta-glucuronidase (Escherichia coli (strain K12), UniProt P05804); assay: Inhibition of Escherichia coli beta-glucuronidase using p-nitrophenyl glycoside as substrate assessed as release of p-nitrophenol measured by spectrometric assay
[2] = biological target: T1, Tissue alpha-L-fucosidase (Bos taurus, UniProt Q2KIM0); assay: Inhibition of bovine kidney alpha-L-fucosidase using p-nitrophenyl glycoside as substrate assessed as release of p-nitrophenol measured by spectrometric assay
T1 sequence (Q2KIM0 whole entry): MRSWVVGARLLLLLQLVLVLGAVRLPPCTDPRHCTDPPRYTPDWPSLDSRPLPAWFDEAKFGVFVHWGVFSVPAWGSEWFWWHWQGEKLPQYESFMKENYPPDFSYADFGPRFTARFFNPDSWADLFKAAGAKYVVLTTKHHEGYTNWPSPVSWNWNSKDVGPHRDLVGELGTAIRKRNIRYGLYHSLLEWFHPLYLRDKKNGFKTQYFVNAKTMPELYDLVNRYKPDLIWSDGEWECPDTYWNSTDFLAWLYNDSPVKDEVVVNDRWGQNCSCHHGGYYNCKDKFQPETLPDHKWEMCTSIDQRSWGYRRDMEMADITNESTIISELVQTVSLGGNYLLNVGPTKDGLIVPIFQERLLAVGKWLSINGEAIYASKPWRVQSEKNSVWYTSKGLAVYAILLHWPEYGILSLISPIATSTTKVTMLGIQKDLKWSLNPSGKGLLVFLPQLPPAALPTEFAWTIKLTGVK

[3] = biological target: T2, Tissue alpha-L-fucosidase (Bos taurus) (UniProt Q2KIM0); assay: Inhibition of bovine kidney alpha-L-fucosidase using p-nitrophenyl glycoside as substrate assessed as release of p-nitrophenol at 1000 uM measured by spectrometric assay relative to control; assay type: tissue-based
T2 sequence (whole entry): T1 sequence (Q2KIM0 whole entry)

[4] = Inhibition of jack bean alpha-mannosidase using p-nitrophenyl glycoside as substrate assessed as release of p-nitrophenol measured by spectrometric assay; parameters: species or system Canavalia ensiformis
[5] = Inhibition of bovine liver beta-galactosidase using p-nitrophenyl glycoside as substrate assessed as release of p-nitrophenol measured by spectrometric assay; assay type: tissue-based, Bos taurus
[6] = biological target: T3, Sucrase-isomaltase, intestinal (Rattus norvegicus, UniProt P23739); assay: Inhibition of rat intestinal isomaltase using p-nitrophenyl glycoside as substrate assessed as release of p-nitrophenol measured by spectrometric assay
[7] = biological target: Beta-glucuronidase (Escherichia coli (strain K12)) (UniProt P05804); assay: Inhibition of Escherichia coli beta-glucuronidase using p-nitrophenyl glycoside as substrate assessed as release of p-nitrophenol at 1000 uM measured by spectrometric assay relative to control
Sus scrofa = species on record: Sus scrofa; assay: Inhibition of porcine kidney alpha-trehalase using p-nitrophenyl glycoside as substrate assessed as release of p-nitrophenol at 1000 uM measured by spectrometric assay relative to control
Prunus dulcis = assay: Inhibition of almond beta-glucosidase using p-nitrophenyl glycoside as substrate assessed as release of p-nitrophenol at 1000 uM measured by spectrometric assay relative to control
Aspergillus niger = assay: Inhibition of Aspergillus niger amyloglucosidase using p-nitrophenyl glycoside as substrate assessed as release of p-nitrophenol at 1000 uM measured by spectrometric assay relative to control
[8] = biological target: Alpha-galactosidase (Coffea arabica) (UniProt Q42656); assay: Inhibition of coffee beans alpha-galactosidase using p-nitrophenyl glycoside as substrate assessed as release of p-nitrophenol at 1000 uM measured by spectrometric assay relative to control
[9] = biological target: T3, Sucrase-isomaltase, intestinal; assay: Inhibition of rat intestinal sucrase using p-nitrophenyl glycoside as substrate assessed as release of p-nitrophenol measured by spectrometric assay; conditions: read-out: IC50
[10] = Inhibition of bovine liver beta-glucosidase using p-nitrophenyl glycoside as substrate assessed as release of p-nitrophenol measured by spectrometric assay; parameters: species or system Bos taurus
[11] = Inhibition of rice alpha-glucosidase using p-nitrophenyl glycoside as substrate assessed as release of p-nitrophenol measured by spectrometric assay; parameters: species or system Oryza sativa; conditions: read-out: IC50
[12] = Inhibition of Penicillium decumbens alpha-L-rhamnosidase using p-nitrophenyl glycoside as substrate assessed as release of p-nitrophenol measured by spectrometric assay
[13] = Inhibition of rat intestinal maltase using maltose as substrate assessed as release of D-glucose measured by spectrometric assay
Alpha-galactosidase = Alpha-galactosidase (Coffea arabica, UniProt Q42656); assay: Inhibition of coffee beans alpha-galactosidase using p-nitrophenyl glycoside as substrate assessed as release of p-nitrophenol measured by spectrometric assay
[14] = Inhibition of porcine kidney alpha-trehalase using p-nitrophenyl glycoside as substrate assessed as release of p-nitrophenol measured by spectrometric assay; parameters: species or system Sus scrofa
[15] = biological target: T4, Alpha-mannosidase (Canavalia ensiformis) (UniProt C0HJB3); assay: Inhibition of jack bean alpha-mannosidase using p-nitrophenyl glycoside as substrate assessed as release of p-nitrophenol at 1000 uM measured by spectrometric assay relative to control
T4 sequence (whole entry): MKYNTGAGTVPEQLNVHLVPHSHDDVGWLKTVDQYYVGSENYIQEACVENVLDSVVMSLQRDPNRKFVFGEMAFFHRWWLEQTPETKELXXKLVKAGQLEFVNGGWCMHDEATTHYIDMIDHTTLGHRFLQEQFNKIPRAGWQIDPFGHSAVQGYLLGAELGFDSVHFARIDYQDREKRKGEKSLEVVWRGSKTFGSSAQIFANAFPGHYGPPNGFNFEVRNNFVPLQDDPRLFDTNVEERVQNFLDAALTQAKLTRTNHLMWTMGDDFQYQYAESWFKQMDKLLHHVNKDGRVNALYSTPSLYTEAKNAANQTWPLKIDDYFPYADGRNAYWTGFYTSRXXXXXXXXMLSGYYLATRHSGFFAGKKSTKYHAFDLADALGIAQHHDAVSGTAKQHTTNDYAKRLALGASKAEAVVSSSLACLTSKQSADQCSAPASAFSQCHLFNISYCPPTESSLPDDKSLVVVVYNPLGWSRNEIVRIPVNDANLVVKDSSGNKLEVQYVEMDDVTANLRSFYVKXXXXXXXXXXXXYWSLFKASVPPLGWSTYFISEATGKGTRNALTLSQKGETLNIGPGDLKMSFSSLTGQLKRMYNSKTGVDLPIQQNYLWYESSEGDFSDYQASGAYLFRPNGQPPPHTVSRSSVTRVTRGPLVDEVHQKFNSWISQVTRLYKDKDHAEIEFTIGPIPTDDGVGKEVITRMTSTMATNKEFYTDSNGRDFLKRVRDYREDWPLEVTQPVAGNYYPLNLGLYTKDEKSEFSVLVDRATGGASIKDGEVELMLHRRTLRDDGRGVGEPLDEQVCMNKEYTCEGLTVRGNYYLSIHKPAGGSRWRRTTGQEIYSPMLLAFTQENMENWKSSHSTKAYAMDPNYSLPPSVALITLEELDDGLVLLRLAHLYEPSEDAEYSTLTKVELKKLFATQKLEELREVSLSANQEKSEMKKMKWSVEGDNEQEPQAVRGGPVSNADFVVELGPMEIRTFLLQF

[16] = Inhibition of snail beta-mannosidase using p-nitrophenyl glycoside as substrate assessed as release of p-nitrophenol measured by spectrometric assay; parameters: species or system Helix pomatia
[17] = Inhibition of almond beta-glucosidase using p-nitrophenyl glycoside as substrate assessed as release of p-nitrophenol measured by spectrometric assay; parameters: species or system Prunus dulcis
Penicillium decumbens = assay: Inhibition of Penicillium decumbens alpha-L-rhamnosidase using p-nitrophenyl glycoside as substrate assessed as release of p-nitrophenol at 1000 uM measured by spectrometric assay relative to control
Helix pomatia = assay: Inhibition of snail beta-mannosidase using p-nitrophenyl glycoside as substrate assessed as release of p-nitrophenol at 1000 uM measured by spectrometric assay relative to control
Bos taurus [18] = species on record: Bos taurus; assay: Inhibition of bovine liver beta-glucosidase using p-nitrophenyl glycoside as substrate assessed as release of p-nitrophenol at 1000 uM measured by spectrometric assay relative to control; assay type: tissue-based
Bos taurus [19] = species on record: Bos taurus; assay: Inhibition of bovine liver beta-galactosidase using p-nitrophenyl glycoside as substrate assessed as release of p-nitrophenol at 1000 uM measured by spectrometric assay relative to control

T3 sequence (P23739 1-1013 limits assumed): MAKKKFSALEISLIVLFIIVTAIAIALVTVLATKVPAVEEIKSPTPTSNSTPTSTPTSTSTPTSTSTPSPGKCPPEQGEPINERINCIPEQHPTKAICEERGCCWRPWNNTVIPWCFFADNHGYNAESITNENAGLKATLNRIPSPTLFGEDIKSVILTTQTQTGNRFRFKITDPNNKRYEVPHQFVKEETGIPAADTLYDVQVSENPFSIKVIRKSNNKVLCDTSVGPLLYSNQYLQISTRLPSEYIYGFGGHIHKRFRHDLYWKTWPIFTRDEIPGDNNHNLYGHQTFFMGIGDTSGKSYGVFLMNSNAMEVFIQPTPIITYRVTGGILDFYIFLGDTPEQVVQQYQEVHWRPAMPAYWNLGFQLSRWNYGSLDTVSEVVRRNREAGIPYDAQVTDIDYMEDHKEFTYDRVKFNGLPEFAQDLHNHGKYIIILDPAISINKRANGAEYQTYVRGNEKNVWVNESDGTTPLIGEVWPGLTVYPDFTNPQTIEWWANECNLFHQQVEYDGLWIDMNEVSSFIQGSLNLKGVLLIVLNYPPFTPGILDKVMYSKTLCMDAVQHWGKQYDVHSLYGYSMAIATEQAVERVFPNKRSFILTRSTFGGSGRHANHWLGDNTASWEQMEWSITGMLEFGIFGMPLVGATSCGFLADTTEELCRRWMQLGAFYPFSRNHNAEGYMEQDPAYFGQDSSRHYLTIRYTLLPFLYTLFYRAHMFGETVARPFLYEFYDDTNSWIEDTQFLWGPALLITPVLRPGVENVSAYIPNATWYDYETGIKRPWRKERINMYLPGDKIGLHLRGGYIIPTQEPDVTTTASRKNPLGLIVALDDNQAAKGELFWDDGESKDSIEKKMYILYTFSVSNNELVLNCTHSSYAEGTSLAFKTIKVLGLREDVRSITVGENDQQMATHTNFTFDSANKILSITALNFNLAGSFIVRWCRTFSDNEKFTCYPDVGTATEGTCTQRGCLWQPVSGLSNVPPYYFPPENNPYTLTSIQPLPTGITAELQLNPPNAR
T3 sequence (P23739 1014-1841 limits assumed): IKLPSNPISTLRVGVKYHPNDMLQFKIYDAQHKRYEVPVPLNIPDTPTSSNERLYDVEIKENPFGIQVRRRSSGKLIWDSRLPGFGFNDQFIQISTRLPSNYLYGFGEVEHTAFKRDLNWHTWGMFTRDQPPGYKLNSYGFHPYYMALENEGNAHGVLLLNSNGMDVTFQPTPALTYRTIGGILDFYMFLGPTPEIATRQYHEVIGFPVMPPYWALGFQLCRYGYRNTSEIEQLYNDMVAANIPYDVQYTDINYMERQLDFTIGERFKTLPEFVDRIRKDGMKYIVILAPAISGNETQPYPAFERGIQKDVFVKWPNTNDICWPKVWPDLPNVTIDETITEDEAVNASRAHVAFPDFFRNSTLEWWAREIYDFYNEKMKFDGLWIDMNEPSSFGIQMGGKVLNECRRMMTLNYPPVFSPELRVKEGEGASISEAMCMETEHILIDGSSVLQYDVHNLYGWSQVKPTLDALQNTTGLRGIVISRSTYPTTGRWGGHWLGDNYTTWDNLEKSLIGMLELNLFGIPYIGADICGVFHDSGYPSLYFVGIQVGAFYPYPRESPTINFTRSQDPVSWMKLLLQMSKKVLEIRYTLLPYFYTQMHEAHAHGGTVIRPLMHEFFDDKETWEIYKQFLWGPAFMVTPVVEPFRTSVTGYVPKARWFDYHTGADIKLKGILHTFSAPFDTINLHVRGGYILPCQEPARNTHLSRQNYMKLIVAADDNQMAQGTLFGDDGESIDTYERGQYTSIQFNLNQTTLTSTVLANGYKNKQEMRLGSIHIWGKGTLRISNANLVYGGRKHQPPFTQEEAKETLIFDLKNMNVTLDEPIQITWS
Chain of Alpha-galactosidase (Q42656 whole entry): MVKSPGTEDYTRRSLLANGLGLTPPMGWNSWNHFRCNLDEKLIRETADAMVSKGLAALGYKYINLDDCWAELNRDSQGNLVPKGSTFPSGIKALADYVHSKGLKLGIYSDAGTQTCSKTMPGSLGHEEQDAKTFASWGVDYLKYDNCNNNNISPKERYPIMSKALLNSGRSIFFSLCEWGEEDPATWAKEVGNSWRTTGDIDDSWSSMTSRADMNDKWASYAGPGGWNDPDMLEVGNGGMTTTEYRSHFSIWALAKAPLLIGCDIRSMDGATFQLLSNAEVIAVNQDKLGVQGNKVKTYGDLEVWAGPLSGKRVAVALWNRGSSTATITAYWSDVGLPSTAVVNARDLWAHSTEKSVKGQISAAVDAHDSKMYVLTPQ
Chain of Beta-glucuronidase (Escherichia coli (strain K12)) (P05804 whole entry, looked up): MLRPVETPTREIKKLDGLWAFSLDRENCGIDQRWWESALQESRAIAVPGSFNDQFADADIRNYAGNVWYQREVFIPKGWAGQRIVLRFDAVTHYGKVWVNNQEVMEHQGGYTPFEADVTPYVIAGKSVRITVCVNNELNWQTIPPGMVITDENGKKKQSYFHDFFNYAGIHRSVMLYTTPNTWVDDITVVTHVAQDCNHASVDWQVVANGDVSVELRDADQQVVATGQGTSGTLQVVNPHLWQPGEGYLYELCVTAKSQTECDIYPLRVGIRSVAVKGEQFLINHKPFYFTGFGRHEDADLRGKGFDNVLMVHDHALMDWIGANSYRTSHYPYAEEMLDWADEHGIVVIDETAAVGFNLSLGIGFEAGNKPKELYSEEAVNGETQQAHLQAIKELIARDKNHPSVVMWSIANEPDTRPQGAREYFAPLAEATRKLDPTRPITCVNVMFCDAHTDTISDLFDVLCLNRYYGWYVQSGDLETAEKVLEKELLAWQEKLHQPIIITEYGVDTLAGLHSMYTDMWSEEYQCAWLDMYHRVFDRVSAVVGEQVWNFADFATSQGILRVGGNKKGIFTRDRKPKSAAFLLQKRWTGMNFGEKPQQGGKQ
Chain of Beta-glucuronidase (P05804 whole entry): as the sequence (P05804 whole entry, looked up) above
Chain of Alpha-galactosidase (Coffea arabica) (Q42656 16-378 limits assumed): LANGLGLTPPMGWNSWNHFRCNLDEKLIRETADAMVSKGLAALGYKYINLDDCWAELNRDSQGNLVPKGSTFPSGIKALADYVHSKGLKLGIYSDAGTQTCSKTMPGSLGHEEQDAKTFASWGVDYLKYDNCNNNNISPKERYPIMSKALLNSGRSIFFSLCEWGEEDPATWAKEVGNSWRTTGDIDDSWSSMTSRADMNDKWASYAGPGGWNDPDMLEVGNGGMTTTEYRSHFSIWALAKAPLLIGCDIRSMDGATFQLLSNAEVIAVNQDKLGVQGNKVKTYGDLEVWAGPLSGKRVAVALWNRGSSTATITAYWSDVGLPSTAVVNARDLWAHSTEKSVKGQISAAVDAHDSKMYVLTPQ

Compound	IC50 [1]	IC50 (Beta-glucuronidase)	IC50 [2]	inhibition [3]	IC50 [4]	inhibition [7]	inhibition (Sus scrofa)	inhibition (Prunus dulcis)	inhibition (Aspergillus niger)	inhibition [8]	IC50 [9]	IC50 [11]	IC50 [12]	IC50 [13]	IC50 (Alpha-galactosidase)	inhibition [15]	IC50 [16]	IC50 [17]	inhibition (Penicillium decumbens)	inhibition (Helix pomatia)	other results
CCCCCCCCC[C@@]1(CO)NC[C@H](O)[C@@H](O)[C@@H]1O.Cl	Not Active	Not Active	Not Active	1.5%	Not Active	38.1%	0%	32.9%	2.7%	15.3%	42 µM	3.3 µM	Not Active	9.5 µM	Not Active	0%	Not Active	Not Active	3.5%	0.6%	IC50 ([5]; read-out: IC50): 29 µM; IC50 ([6]; read-out: IC50): 122 µM; IC50 ([10]; read-out: IC50): 213 µM; IC50 [14]: Not Active
CCCCCCC[C@@]1(CO)NC[C@H](O)[C@@H](O)[C@@H]1O.Cl	Not Active	Not Active	Not Active	0%	Not Active	2.5%	4.2%	6.9%	11.9%	8%	89 µM	9.9 µM	Not Active	19 µM	Not Active	2.4%	Not Active	Not Active	0%	0%	IC50 [5]: Not Active; inhibition (Bos taurus [18]): 16.5%; IC50 [6]: Not Active; inhibition (Bos taurus [19]): 28.4%; IC50 [10]: Not Active; IC50 [14]: Not Active
CC[C@]1(CO)NC[C@H](O)[C@@H](O)[C@@H]1O.Cl	Not Active	Not Active	Not Active	2.1%	Not Active	3.6%	–	5.6%	0%	30.1%	0.1 µM	0.097 µM	Not Active	0.11 µM	Not Active	1.6%	Not Active	Not Active	0%	1.1%	IC50 [5]: Not Active; inhibition (Bos taurus [18]): 15.3%; IC50 ([6]; read-out: IC50): 1.2 µM; inhibition (Bos taurus [19]): 18.4%; IC50 [10]: Not Active; IC50 ([14]; read-out: IC50): 94 µM
CCCC[C@@]1(CO)NC[C@H](O)[C@@H](O)[C@@H]1O.Cl	Not Active	Not Active	Not Active	16%	Not Active	–	0%	6.2%	3.8%	12.5%	242 µM	85 µM	Not Active	110 µM	Not Active	4.4%	Not Active	Not Active	22.8%	3%	IC50 ([5]; read-out: IC50): 52 µM; IC50 [6]: Not Active; IC50 ([10]; read-out: IC50): 149 µM; IC50 [14]: Not Active
